Reference: patent US11820804B2, “Peptide-based inhibitors of growth hormone action and methods of use thereof” (Ohio University, priority 2018, dated 2023)

Key:
Type in all cases: cell-based
[1] = tested on: hGH mediated STAT5 phosphorylation in SK-MEL-28 human melanoma cells; assay: Western blot of hGH mediated STAT5 phosphorylation in SK-MEL-28 cells; details: co-treated with 2.5 nM recombinant hGH, peptide at 25 and 250 nM, 20 minutes
Experimental: (§1) Human malignant melanoma cell lines—SK-MEL-28, SK-MEL-30, human lymphoblast IM9 cells, mouse fibroblast L cells were obtained from American Type Culture Collection (ATCC; Manassas, Va.). SK-MEL-28 were grown and maintained in EMEM media (ATCC), while IM9 and L cells were grown in RPMI-1640 (ATCC) and DMEM (ATCC) respectively, as indicated by ATCC protocols. Complete growth media was supplemented with 10% fetal bovine serum (FBS; ATCC) and 1×antibiotic-antimycotic (Thermo Fisher Scientific, Waltham, Mass.). Cells were grown at 37° C./5% CO2 in a humidified incubator. Media was replaced every 48 hours. No hGH was present in the media or added externally unless specifically mentioned. For hGH treatment of adherent cells, 12-16 hours after seeding the cells were serum-starved for 4 hours in serum free growth media and hGH (or PBS as control) was added at the mentioned concentrations (50 ng/mL=2.5 nM or other concentrations). […]
(§2) Western blotting was performed following established lab procedures. […] Membranes were then washed and treated with West Femto Chemiluminiscence® detection reagents (Thermo Fisher Scientific) and the chemiluminiscence signal was captured using a GelDoc® (Biorad) fluorescence reader. Densitometry analysis of the blots was done by measured band-intensity from the area-under-curve using ImageJ® software. […]

[2] = tested on: hGH mediated STAT5 phosphorylation in L mouse fibroblasts cells; assay: Western blot of hGH mediated STAT5 phosphorylation in L cells; details: L mouse fibroblast cells, co-treated with 2.5 nM recombinant hGH, peptide at 25 and 250 nM, 20 minutes
Experimental: as §1, §2

[3] = tested on: tyrosine pSTAT5 levels following hGH stimulation; assay: tyrosine pSTAT5 levels following hGH stimulation (cells not named at the place); details: general statement, cell line not named
Description: A hallmark of hGH action is rapid tyrosine phosphorylation of the STAT5(A and B) transcription factor protein following binding of hGH to hGHR and transactivation of hGHR associated JAK2. The phosphorylation event is rapid (minutes following hGH addition) and has been used as a readout of hGHR activation. Inhibitors of hGH action blocks hGH-hGHR mediated STAT5 tyrosine phosphorylation in many cells, including IM9, SK-MEL-28, mouse fibroblasts, and other cells which express hGHR.
as §1, with “mentioned.” for “mentioned. For hGH treatment of adherent cells, 12-16 hours after seeding the cells were serum-starved for 4 hours in serum free growth media and hGH (or PBS as control) was added at the mentioned concentrations (50 ng/mL=2.5 nM or other concentrations).”

[4] = tested on: hGH mediated STAT5 phosphorylation in IM9 human lymphoblast cells; assay: Western blot of hGH mediated STAT5 phosphorylation in IM9 cells; details: co-treated with 2.5 nM recombinant hGH, peptide at 25 and 250 nM, 20 minutes
Experimental: as §1, §2

## Tyr Ile Pro Lys Glu Gln Lys Tyr Ser Phe Leu Gln Asn Pro Gln Thr (YIPKEQKYSFLQNPQT; listed as Homo sapiens) [S1H, 16-amino acid peptide mimicking hGH site 1 helix, residues 36-51]
[1]
  hGH mediated STAT5 phosphorylation (pSTAT5 levels): downregulates hGH mediated STAT5 phosphorylation
[2]
  hGH mediated STAT5 phosphorylation (phospho-STAT5 levels): downregulates hGH mediated STAT5 phosphorylation
[3]
  tyrosine pSTAT5 levels following hGH stimulation: robustly blocks tyrosine pSTAT5 levels following hGH stimulation, in a dose-dependent manner
[4]
  hGH mediated STAT5 phosphorylation (phospho-STAT5 levels): downregulates hGH mediated STAT5 phosphorylation
